Where two headings read alike, the source gives them in different places.
Target: T1, F508delCFTR (Homo sapiens, UniProt P13569, DEL508-508)
T1 construct: expressed in transfected cells; host or cells: CFBE41o- human lung-derived epithelial cells (CFBE4lo-F508delCFTR-HRP), doxycycline-inducible
Assay: Cell Surface Expression-Horse Radish Peroxidase (CSE-HRP) Assay;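 on Maximum % activity (with co-corrector): co-corrector and positive control are both the same reference corrector at 2 µM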;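 on Maximum % activity (without co-corrector): percent of the 2 µM on-plate positive control corrector response above DMSO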
Assay type: cell-based
Conditions: for Emax / Maximum % activity (with co-corrector): maximum at any tested concentration, normalized to on-plate positive control; for Emax: read-out: Maximum % activity (without co-corrector)
Procedure: Cell Surface Expression-Horse Radish Peroxidase (CSE-HRP) Assay;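 on Maximum % activity (with co-corrector): co-corrector and positive control are both the same reference corrector at 2 µM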;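 on Maximum % activity (without co-corrector): percent of the 2 µM on-plate positive control corrector response above DMSO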
The development was achieved by expressing the F508delCFTR mutation along with a horseradish peroxidase (HRP) in the fourth exofacial loop, and then measuring the HRP activity using luminescence readout from these cells, CFBE4lo-F508delCFTR-HRP, that were incubated overnight with the test corrector compounds, either without or with the co-corrector. […] The test compounds were then added either without or with a co-corrector at the required concentrations and further incubated for 18-24 hours at 33° C. The highest concentration tested was 20 μM with an 8-point concentration response curve using a 3-fold dilution in both the test compound without or with the co-corrector. Three replicate plates were run to determine one EC50. All plates contained negative controls (dimethyl sulfoxide, DMSO) and positive control (2 μM of 3-[(2R,4R)-4-({[1-(2,2-difluoro-1,3-benzodioxol-5-yl)cyclopropyl]carbonyl}amino)-7-methoxy-3,4-dihydro-2H-chromen-2-yl]benzoic acid) as well as on-plate concentration response of the positive control. […] The raw counts from the experiment were analyzed using Accelrys® Assay Explorer v3.3.
1−[3*SDPositive Control+3*SDNegative Control/Absolute(MeanPositive Control−MeanNegative Control)]
wherein “SD” is standard deviation.
The % activity measured at each of the 8 test concentrations of the test compound added either without or with a co-corrector (2 μM of 3-[(2R,4R)-4-({[1-(2,2-difluoro-1,3-benzodioxol-5-yl)cyclopropyl]carbonyl}amino)-7-methoxy-3,4-dihydro-2H-chromen-2-yl]benzoic acid) was normalized to the on-plate positive control using the following formulae:
% activity(Test compound without co-corrector)=[(test compound without co-corrector response−DMSO response)/(positive control response−DMSO response)]*100
% activity(Test compound with co-corrector)=[(test compound with co-corrector response−DMSO response)/(positive control response−DMSO response)]*100
The maximum % activity achieved for the test compound either without or with a co-corrector at any tested concentration is presented in Table 4 along with the respective EC50's calculated using the following general sigmoidal curve with variable Hill slope equation (described as Model 42 in the Accelrys® Assay Explorer v3.3 software):
General sigmoidal curve with concentration, response, top, bottom, EC50 and Hill slope. This model describes a sigmoidal curve with an adjustable baseline, a. The equation can be used to fit curves where response is either increasing or decreasing with respect to the independent variable, “x”.
“x” is a concentration of drug under test. “y” is the response. “a” is the maximum response, and “d” is the minimum response “c” is the inflection point (EC50) for the curve. That is, “y” is halfway between the lower and upper asymptotes when x=c. “b” is the slope-factor or Hill coefficient. The sign of b is positive when the response increases with increasing dose and is negative when the response decreases with increasing dose (inhibition).

[1] = test compound without co-corrector
[2] = test compound without co-corrector, read-out: EC50 (without co-corrector)
[3] = with co-corrector (2 μM of 3-[(2R,4R)-4-({[1-(2,2-difluoro-1,3-benzodioxol-5-yl)cyclopropyl]carbonyl}amino)-7-methoxy-3,4-dihydro-2H-chromen-2-yl]benzoic acid)
[4] = with co-corrector (2 μM of 3-[(2R,4R)-4-({[1-(2,2-difluoro-1,3-benzodioxol-5-yl)cyclopropyl]carbonyl}amino)-7-methoxy-3,4-dihydro-2H-chromen-2-yl]benzoic acid), read-out: EC50 (with co-corrector)

T1 sequence (P13569 with tags, fused parts or gaps DEL508-508): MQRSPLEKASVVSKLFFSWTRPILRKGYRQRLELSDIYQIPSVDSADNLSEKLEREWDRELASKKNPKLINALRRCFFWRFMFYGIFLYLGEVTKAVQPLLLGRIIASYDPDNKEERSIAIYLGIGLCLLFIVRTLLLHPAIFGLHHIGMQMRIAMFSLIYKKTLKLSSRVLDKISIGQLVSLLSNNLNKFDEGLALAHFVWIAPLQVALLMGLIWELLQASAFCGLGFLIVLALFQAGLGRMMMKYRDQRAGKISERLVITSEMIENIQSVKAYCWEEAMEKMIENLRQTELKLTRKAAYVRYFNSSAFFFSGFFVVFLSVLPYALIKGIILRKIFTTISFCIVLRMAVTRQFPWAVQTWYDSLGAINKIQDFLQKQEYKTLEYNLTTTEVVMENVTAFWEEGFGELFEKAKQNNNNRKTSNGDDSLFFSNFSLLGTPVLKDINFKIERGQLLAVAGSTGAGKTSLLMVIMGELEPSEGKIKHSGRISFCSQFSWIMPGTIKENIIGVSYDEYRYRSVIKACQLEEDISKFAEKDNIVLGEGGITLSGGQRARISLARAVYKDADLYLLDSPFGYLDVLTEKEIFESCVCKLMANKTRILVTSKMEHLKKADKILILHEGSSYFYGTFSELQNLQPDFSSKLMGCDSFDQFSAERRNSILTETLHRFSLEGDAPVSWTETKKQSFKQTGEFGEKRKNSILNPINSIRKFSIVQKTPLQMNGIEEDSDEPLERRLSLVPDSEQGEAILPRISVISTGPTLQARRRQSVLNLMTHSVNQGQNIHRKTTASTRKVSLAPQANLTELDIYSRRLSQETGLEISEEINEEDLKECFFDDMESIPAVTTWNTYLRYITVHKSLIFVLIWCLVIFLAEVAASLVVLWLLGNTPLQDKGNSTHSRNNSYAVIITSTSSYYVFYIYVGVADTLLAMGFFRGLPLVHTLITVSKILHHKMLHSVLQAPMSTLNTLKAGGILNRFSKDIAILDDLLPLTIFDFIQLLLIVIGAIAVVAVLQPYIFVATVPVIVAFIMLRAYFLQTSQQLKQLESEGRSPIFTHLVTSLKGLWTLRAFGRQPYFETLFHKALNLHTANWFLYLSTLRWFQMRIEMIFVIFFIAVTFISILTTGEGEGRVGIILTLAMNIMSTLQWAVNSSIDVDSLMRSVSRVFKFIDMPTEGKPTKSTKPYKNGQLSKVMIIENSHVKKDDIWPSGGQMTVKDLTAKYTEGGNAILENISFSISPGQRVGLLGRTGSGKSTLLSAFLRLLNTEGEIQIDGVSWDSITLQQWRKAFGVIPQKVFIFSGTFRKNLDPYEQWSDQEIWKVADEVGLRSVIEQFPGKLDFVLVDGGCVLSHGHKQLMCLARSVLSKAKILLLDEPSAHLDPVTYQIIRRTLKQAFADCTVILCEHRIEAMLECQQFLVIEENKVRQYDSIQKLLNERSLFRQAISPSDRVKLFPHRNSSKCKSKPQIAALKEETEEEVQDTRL

| Compound | Emax [1] | EC50 [2] | Maximum % activity (with co-corrector) [3] | EC50 [4] |
| --- | --- | --- | --- | --- |
| COc1ccc(Cl)cc1CN[C@@H]1[C@@H](C2CC2)[C@H](C(=O)O)N(C(=O)N(C(C)C)C(C)C)[C@@H]1c1ccccc1 (racemic) [III-48] | < 100% | > 10 µM | ++ (≥150 and <350) | 1 to 10 µM |
| Cc1cc(C(F)(F)F)cc(N[C@@H]2[C@@H](C(C)(C)C)[C@H](C(=O)NS(=O)(=O)C(C)(C)C)N(C(=O)C3CCCCC3)[C@@H]2c2ccccc2)n1 (racemic) [III-50] | < 100% | > 10 µM | ++ (≥150 and <350) | 1 to 10 µM |
| Cc1cc(C(F)(F)F)cc(N[C@@H]2[C@@H](C(C)(C)C)[C@H](C(=O)NS(=O)(=O)C3(C)CC3)N(C(=O)C3CCCCC3)[C@@H]2c2ccccc2)n1 (racemic) [III-51] | < 100% | 1 to 10 µM | ++ (≥150 and <350) | 1 to 10 µM |
| Cc1cc(C(F)(F)F)cc(N[C@@H]2[C@@H](C(C)(C)C)[C@H](C(=O)NS(=O)(=O)C3CC3)N(C(=O)C3CCCCC3)[C@@H]2c2ccccc2)n1 (racemic) [III-52] | < 100% | > 10 µM | ++ (≥150 and <350) | < 1 µM |
| CCS(=O)(=O)NC(=O)[C@H]1[C@H](C(C)(C)C)[C@@H](Nc2cc(C(F)(F)F)cc(C)n2)[C@@H](c2ccccc2)N1C(=O)C1CCCCC1 (racemic) [III-53] | < 100% | > 10 µM | ++ (≥150 and <350) | 1 to 10 µM |
| Cc1cc(C(F)(F)F)cc(N[C@@H]2[C@@H](C(C)(C)C)[C@H](C(=O)NS(=O)(=O)N(C)C)N(C(=O)C3CCCCC3)[C@@H]2c2ccccc2)n1 (racemic) [III-54] | < 100% | 1 to 10 µM | ++ (≥150 and <350) | 1 to 10 µM |
| CCN(C)S(=O)(=O)NC(=O)[C@H]1[C@H](C(C)(C)C)[C@@H](Nc2cc(C(F)(F)F)cc(C)n2)[C@@H](c2ccccc2)N1C(=O)C1CCCCC1 (racemic) [III-55] | < 100% | > 10 µM | ++ (≥150 and <350) | 1 to 10 µM |
| Cc1cc(C(F)(F)F)cc(N[C@@H]2[C@@H](C(C)(C)C)[C@H](C(=O)NS(C)(=O)=O)N(C(=O)C3CCCCC3)[C@@H]2c2ccccc2)n1 (racemic) [III-56] | < 100% | > 10 µM | ++ (≥150 and <350) | 1 to 10 µM |
| O=C(O)[C@@H]1N(C(=O)C2CCCCC2)[C@H](c2ccccc2)[C@H](NCc2ccccc2OC(F)F)C12CC2 (racemic) [III-57] | < 100% | > 10 µM | ++ (≥150 and <350) | 1 to 10 µM |
| COc1cccc([C@@H]2[C@H](NCc3ccccc3OC(F)F)[C@@H](C(C)(C)C)[C@H](C(=O)O)N2C(=O)N(C(C)C)C(C)C)n1 (racemic) [III-59] | < 100% | > 10 µM | + (<150) | 1 to 10 µM |
| COc1ccc(C(F)(F)F)cc1CN[C@@H]1[C@@H](C(C)(C)C)[C@H](C(=O)O)N(C(=O)C2CCCCC2)[C@@H]1c1ccccn1 (racemic) [III-60] | < 100% | 1 to 10 µM | +++ (≥350) | 1 to 10 µM |
| COc1ccc(Cl)cc1CN[C@@H]1[C@@H](C(C)(C)C)[C@H](C(=O)O)N(C(=O)C2CCCCC2)[C@@H]1c1ccccn1 (racemic) [III-61] | < 100% | 1 to 10 µM | +++ (≥350) | 1 to 10 µM |
| COc1cccc([C@@H]2[C@H](Nc3cc(C(F)(F)F)cc(C)n3)[C@@H](C(C)(C)C)[C@H](C(=O)O)N2C(=O)C2C3COCC32)n1 (mixture of isomers) [III-62] | < 100% | 1 to 10 µM | ++ (≥150 and <350) | 1 to 10 µM |
| COc1cccc([C@@H]2[C@H](Nc3cc(C(F)(F)F)cc(C)n3)[C@@H](C(C)(C)C)[C@H](C(=O)O)N2C(=O)C2CCCCO2)n1 (mixture of isomers) [III-63] | < 100% | > 10 µM | + (<150) | > 10 µM |
| COCCOc1ccc(C(F)(F)F)cc1CN[C@@H]1[C@@H](C(C)(C)C)[C@H](C(=O)O)N(C(=O)C2CCCCC2)[C@@H]1c1ccccc1 (racemic) [III-64] | < 100% | 1 to 10 µM | ++ (≥150 and <350) | 1 to 10 µM |
| COCCn1cc(C(F)(F)F)cc(CN[C@H]2[C@H](C(C)(C)C)[C@@H](C(=O)O)N(C(=O)C3CCCCC3)[C@H]2c2ccccc2)c1=O (racemic) [III-65] | < 100% | > 10 µM | ++ (≥150 and <350) | 1 to 10 µM |
| CC(C)(C)[C@@H]1[C@@H](NCc2cc(C(F)(F)F)ccc2OCCO)[C@@H](c2ccccc2)N(C(=O)C2CCCCC2)[C@H]1C(=O)O (racemic) [III-66] | < 100% | > 10 µM | ++ (≥150 and <350) | 1 to 10 µM |
| COc1cccc([C@@H]2[C@H](NCc3ccc(Cl)cc3OC)[C@@H](C(C)(C)C)[C@H](C(=O)O)N2C(=O)C2CCCCC2)n1 (racemic) [III-67] | 100 to 200% | 1 to 10 µM | +++ (≥350) | 1 to 10 µM |
| COc1cccc([C@H]2[C@@H](NCc3cc(C(F)(F)F)ccc3OC)[C@H](C(C)(C)C)[C@@H](C(=O)O)N2C(=O)C2CCCOC2)n1 (mixture of isomers) [III-69] | < 100% | 1 to 10 µM | +++ (≥350) | 1 to 10 µM |
| COc1ccc(C(F)(F)F)cc1CN[C@@H]1[C@@H](C(C)(C)C)[C@H](C(=O)O)N(C(=O)C2C3COCC32)[C@@H]1c1ccccc1N(C)C (mixture of isomers) [III-71] | > 200% | 1 to 10 µM | +++ (≥350) | 1 to 10 µM |
| COCCOc1cnc(Cl)cc1CN[C@@H]1[C@@H](C(C)(C)C)[C@H](C(=O)O)N(C(=O)C2CCCCC2)[C@@H]1c1ccccc1 (racemic) [III-72] | < 100% | > 10 µM | ++ (≥150 and <350) | 1 to 10 µM |
| CC(C)(C)[C@@H]1[C@@H](NCc2cc(Cl)ncc2O)[C@@H](c2ccccc2)N(C(=O)C2CCCCC2)[C@H]1C(=O)O (racemic) [III-73] | < 100% | > 10 µM | ++ (≥150 and <350) | 1 to 10 µM |

Reference: patent publication US20180099931A1 (AbbVie S.à.r.l., priority 2016, published 2018)
